Assays:
Format in all cases: functional
Mycoplasma genitalium [1] = assay: Antibacterial activity against Mycoplasma genitalium M2341 by broth dilution method; conditions: Mycoplasmoides genitalium
Mycoplasma genitalium [2] = assay: Antibacterial activity against Mycoplasma genitalium M2321 by broth dilution method; conditions: Mycoplasmoides genitalium
Mycoplasma genitalium [3] = assay: Antibacterial activity against Mycoplasma genitalium by broth dilution method; conditions: Mycoplasmoides genitalium; for MIC50: read-out: MIC50; for MIC90: read-out: MIC90
Mycoplasma genitalium [4] = assay: Antibacterial activity against Mycoplasma genitalium M6328 by broth dilution method; conditions: Mycoplasmoides genitalium
Mycoplasma genitalium [5] = assay: Antibacterial activity against Mycoplasma genitalium M6282 by broth dilution method; conditions: Mycoplasmoides genitalium
Mycoplasma genitalium [6] = assay: Antibacterial activity against Mycoplasma genitalium M6090 by broth dilution method; conditions: Mycoplasmoides genitalium
Mycoplasma genitalium [7] = assay: Antibacterial activity against Mycoplasma genitalium M6280 by broth dilution method; conditions: Mycoplasmoides genitalium
Mycoplasma genitalium [8] = assay: Antibacterial activity against Mycoplasma genitalium TW48-5G by broth dilution method; conditions: Mycoplasmoides genitalium, read-out: MIC
Mycoplasma genitalium [9] = assay: Antibacterial activity against Mycoplasma genitalium M2300 by broth dilution method; conditions: Mycoplasmoides genitalium
Mycoplasma genitalium [10] = assay: Antibacterial activity against Mycoplasma genitalium M6257 by broth dilution method; conditions: Mycoplasmoides genitalium
Mycoplasma genitalium [11] = assay: Antibacterial activity against Mycoplasma genitalium TW10-5G by broth dilution method; conditions: Mycoplasmoides genitalium, read-out: MIC
Mycoplasma genitalium [12] = assay: Antibacterial activity against Mycoplasma genitalium M6283 by broth dilution method; conditions: Mycoplasmoides genitalium
Mycoplasma genitalium [13] = assay: Antibacterial activity against Mycoplasma genitalium TW10-6G by broth dilution method; conditions: Mycoplasmoides genitalium, read-out: MIC
Mycoplasma genitalium [14] = assay: Antibacterial activity against Mycoplasma genitalium R32 by broth dilution method; conditions: Mycoplasmoides genitalium, read-out: MIC
Mycoplasma genitalium [15] = assay: Antibacterial activity against Mycoplasma genitalium G37 by broth dilution method; conditions: Mycoplasmoides genitalium, read-out: MIC
Mycoplasma genitalium [16] = assay: Antibacterial activity against Mycoplasma genitalium UTMB-10G by broth dilution method; conditions: Mycoplasmoides genitalium, read-out: MIC
Mycoplasma genitalium [17] = assay: Antibacterial activity against Mycoplasma genitalium M2282 by broth dilution method; conditions: Mycoplasmoides genitalium
Mycoplasma genitalium [18] = assay: Antibacterial activity against Mycoplasma genitalium M6285 by broth dilution method; conditions: Mycoplasmoides genitalium
Mycoplasma genitalium [19] = assay: Antibacterial activity against Mycoplasma genitalium M6286 by broth dilution method; conditions: Mycoplasmoides genitalium
Mycoplasma genitalium [20] = assay: Antibacterial activity against Mycoplasma genitalium M6287 by broth dilution method; conditions: Mycoplasmoides genitalium
Mycoplasma genitalium [21] = assay: Antibacterial activity against Mycoplasma genitalium M6284 by broth dilution method; conditions: Mycoplasmoides genitalium
Mycoplasma genitalium [22] = assay: Antibacterial activity against Mycoplasma genitalium M6151 by broth dilution method; conditions: Mycoplasmoides genitalium
Mycoplasma genitalium [23] = assay: Antibacterial activity against Mycoplasma genitalium by quantitative TaqMan PCR method; conditions: Mycoplasmoides genitalium
Mycoplasma genitalium [24] = assay: Antibacterial activity against Mycoplasma genitalium M30 by broth dilution method; conditions: Mycoplasmoides genitalium, read-out: MIC

COc1c(N2C[C@@H]3CCCN[C@@H]3C2)c(F)cc2c(=O)c(C(=O)O)cn(C3CC3)c12 [MOXIFLOXACIN]
0.063 µg/mL: MIC50 (Mycoplasma genitalium [3]) | MIC (Mycoplasma genitalium [8]) | MIC (Mycoplasma genitalium [11]) | MIC (Mycoplasma genitalium [13]) | MIC (Mycoplasma genitalium [14]) | MIC (Mycoplasma genitalium [15]) | MIC (Mycoplasma genitalium [16]) | MIC50 (Mycoplasma genitalium [23]) | MIC (Mycoplasma genitalium [24])
0.125 µg/mL: MIC90 (Mycoplasma genitalium [3]) | MIC90 (Mycoplasma genitalium [23])
0.016 µg/mL: MIC (Mycoplasma genitalium [1]) | MIC (Mycoplasma genitalium [2]) | MIC (Mycoplasma genitalium [4]) | MIC (Mycoplasma genitalium [5]) | MIC (Mycoplasma genitalium [6]) | MIC (Mycoplasma genitalium [7]) | MIC (Mycoplasma genitalium [9]) | MIC (Mycoplasma genitalium [10]) | MIC (Mycoplasma genitalium [12]) | MIC (Mycoplasma genitalium [17]) | MIC (Mycoplasma genitalium [18]) | MIC (Mycoplasma genitalium [19]) | MIC (Mycoplasma genitalium [20]) | MIC (Mycoplasma genitalium [21]) | MIC (Mycoplasma genitalium [22])

N[C@@H]1CN(c2c(F)cc3c(=O)c(C(=O)O)cn([C@@H]4C[C@@H]4F)c3c2Cl)CC12CC2 [SITAFLOXACIN ANHYDROUS]
0.008 µg/mL: MIC (Mycoplasma genitalium [1]) | MIC (Mycoplasma genitalium [2]) | MIC (Mycoplasma genitalium [4]) | MIC (Mycoplasma genitalium [5]) | MIC (Mycoplasma genitalium [6]) | MIC (Mycoplasma genitalium [7]) | MIC (Mycoplasma genitalium [9]) | MIC (Mycoplasma genitalium [10]) | MIC (Mycoplasma genitalium [12]) | MIC (Mycoplasma genitalium [17]) | MIC (Mycoplasma genitalium [18]) | MIC (Mycoplasma genitalium [19]) | MIC (Mycoplasma genitalium [20]) | MIC (Mycoplasma genitalium [21]) | MIC (Mycoplasma genitalium [22])
0.125 µg/mL: MIC90 (Mycoplasma genitalium [3]) | MIC90 (Mycoplasma genitalium [23])
0.063 µg/mL: MIC50 (Mycoplasma genitalium [3]) | MIC (Mycoplasma genitalium [8]) | MIC (Mycoplasma genitalium [11]) | MIC (Mycoplasma genitalium [13]) | MIC (Mycoplasma genitalium [14]) | MIC (Mycoplasma genitalium [15]) | MIC (Mycoplasma genitalium [16]) | MIC50 (Mycoplasma genitalium [23]) | MIC (Mycoplasma genitalium [24])

From ChEMBL document CHEMBL1649265, “Antimicrobial susceptibilities of Mycoplasma genitalium strains examined by broth dilution and quantitative PCR” (2009)
